pKi: −log10 of the molar value.

In this experiment the target is T1, histamine-3 receptors (H3 receptor) (Rattus norvegicus, UniProt Q9QYN8).
T1 construct: from tissue; host or cells: male Sprague-Dawley rat brain cortex membranes
T1 sequence (Q9QYN8 whole entry): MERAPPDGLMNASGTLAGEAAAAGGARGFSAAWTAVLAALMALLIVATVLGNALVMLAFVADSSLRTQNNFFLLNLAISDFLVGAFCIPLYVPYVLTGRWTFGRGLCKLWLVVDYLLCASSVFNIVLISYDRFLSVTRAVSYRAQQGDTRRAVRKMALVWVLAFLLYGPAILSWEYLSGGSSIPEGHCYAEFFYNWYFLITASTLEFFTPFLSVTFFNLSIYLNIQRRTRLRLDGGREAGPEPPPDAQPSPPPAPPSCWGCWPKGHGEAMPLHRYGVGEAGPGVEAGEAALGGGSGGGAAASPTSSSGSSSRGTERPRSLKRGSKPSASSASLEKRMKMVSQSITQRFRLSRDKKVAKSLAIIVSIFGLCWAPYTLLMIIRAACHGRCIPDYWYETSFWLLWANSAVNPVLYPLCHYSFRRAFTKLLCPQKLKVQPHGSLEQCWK
Put plainly: (3H)-N-α-methylhistamine binding to rat cortical membranes (histamine-3 receptor ligands). As to conditions: male Sprague-Dawley rat brain cortical membranes; (3H)-N-α-methylhistamine ~0.6 nM; 30 minutes at 25° C.; Cheng-Prusoff. As for the experimental part: Briefly, male Sprague-Dawley rat brain cortices were homogenized (1 g tissue/10 mL buffer) in 50 mM Tris-HCl/5 mM EDTA containing protease inhibitor cocktail (Calbiochem) using a polytron set at 20,500 rpm. Homogenates were centrifuged for 20 minutes at 40,000×g. The supernatant was decanted, and pellets were weighed. The pellet was resuspended by polytron homogenization in 40 mL 50 mM Tris-HCl/5 mM EDTA with protease inhibitors and centrifuged for 20 minutes at 40,000×g. […] Rat cortical membranes (12 mg wet weight/tube) were incubated with (^3H)-N-α-methylhistamine (˜0.6 nM) with or without H3 receptor antagonists in a total incubation volume of 0.5 mL of 50 mM Tris-HCl/5 mM EDTA (pH 7.7). Test compounds were dissolved in DSMO to provide a 20 mM solution, serially diluted and then added to the incubation mixture prior to initiating the incubation assay by addition of the membranes. Thioperamide (3 μM) was used to determine nonspecific binding. Binding incubations were conducted for 30 minutes at 25° C. and terminated by addition of 2 mL of ice cold 50 mM Tris-HCl (pH 7.7) and filtration through 0.3% polyethylenimine-soaked Unifilter plates (Packard). These filters were washed 4 additional times with 2 mL of ice-cold 50 mM Tris-HCl and dried for 1 hour. Radioactivity was determined using liquid scintillation counting techniques. Results were analyzed by Hill transformation and Ki values were determined using the Cheng-Prusoff equation.
Regarding “3-{[3-(2-{2-[(2R)-2-methylpyrrolidin-1-yl]ethyl}-1-benzofuran-5-yl)-1,2,4-oxadiazol-5-yl]methyl}benzonitrile [Example 93]”, the pKi is 8.22.

“4-(2-{2-[-2,6-dimethylpiperidinyl]ethyl}-1-benzofuran-5-yl)benzonitrile [Example 11]” showed a pKi of 7.71.

“4-(6-methyl-2-{2-[(2R)-2-methyl-1-pyrrolidinyl]ethyl}-1-benzofuran-5-yl)benzonitrile and 4-(4-methyl-2-{2-[(2R)-2-methyl-1-pyrrolidinyl]ethyl}-1-benzofuran-5-yl)benzonitrile [Example 108]” had a pKi of 8.10.

“4-[4-(2-{2-[-2,6-dimethylpiperidinyl]ethyl}-1-benzofuran-5-yl)benzoyl]morpholine [Example 29]” showed a negative logarithm of the Ki (pKi) of 8.07.

`N#Cc1ccc(-c2ccc3oc(CCN4CCCC4)cc3c2)cc1` [Example 2, 4-{2-[2-(1-pyrrolidinyl)ethyl]-1-benzofuran-5-yl}benzonitrile] had a pKi of 7.33.

Regarding `N#Cc1ccc(-c2ccc3oc(CCN4CCCCC4)cc3c2)cc1` [Example 4, 4-{2-[2-(1-piperidinyl)ethyl]-1-benzofuran-5-yl}benzonitrile], the pKi is 7.23.

Take `CC1CCCCN1CCc1cc2cc(-c3ccc(C#N)cc3)ccc2o1` (centres unmarked) [Example 6, 4-{2-[2-(2-methyl-1-piperidinyl)ethyl]-1-benzofuran-5-yl}benzonitrile]: the pKi is 7.35.

Regarding `COC(=O)[C@@H]1CCCN1CCc1cc2cc(-c3ccc(C#N)cc3)ccc2o1` [Example 15, 4-(2-{2-[2-pyrrolidinemethyl carboxylate]ethyl}-1-benzofuran-5-yl)benzonitrile], the pKi was not above 6.00.

As for `O=C(c1ccc(-c2ccc3oc(CCN4CCC[C@H]4CO)cc3c2)cc1)N1CCOCC1` [Example 34], the pKi was 8.16.

Molecule `C[C@@H]1CCC[C@H](C)N1CCc1cc2cc(-c3ccc(C(=O)N4CCOCC4)cn3)ccc2o1` [Example 50, 4-{[6-(2-{2-[-2,6-dimethylpiperidinyl]ethyl}-1-benzofuran-5-yl)-3-pyridinyl]carbonyl}morpholine] showed a pKi of 7.43.

Molecule `O=C(c1ccc(-c2ccc3oc(CCN4CCC5(CC4)OCCO5)cc3c2)nc1)N1CCOCC1` [Example 60, 8-(2-{5-[5-(4-morpholinylcarbonyl)-2-pyridinyl]-1-benzofuran-2-yl}ethyl)-1,4-dioxa-8-azaspiro[4.5]decane] gave a pKi not above 6.00.

Turning to `C=CCNCCc1cc2cc(-c3ccc(C(=O)N4CCOCC4)cn3)ccc2o1` [Example 63, N-allyl-N-(2-{5-[5-(4-morpholinylcarbonyl)-2-pyridinyl]-1-benzofuran-2-yl}ethyl)amine], the pKi is not above 6.00.

`O=C(c1ccc(-c2ccc3oc(CCNCCCO)cc3c2)nc1)N1CCOCC1` [Example 64, 3-[(2-{5-[5-(4-morpholinylcarbonyl)-2-pyridinyl]-1-benzofuran-2-yl}ethyl)amino]-1-propanol] had a pKi not above 6.00.

For the molecule `C[C@@H]1CCCN1CCc1cc2c(-c3ccc(C#N)cc3)cccc2o1` [Example 85, 4-(2-{2-[(2R)-2-methyl-1-pyrrolidinyl]ethyl}-1-benzofuran-4-yl)benzonitrile], the pKi is 7.38.

In turn, `C[C@@H]1CCCN1CCc1cc2ccc(-c3ccc(C#N)cc3)cc2o1` [Example 86, 4-(2-{2-[(2R)-2-methyl-1-pyrrolidinyl]ethyl}-1-benzofuran-6-yl)benzonitrile] had a pKi of 8.46.

For the molecule `C[C@@H]1CCCN1CCc1cc2cc(-c3noc(Cc4cccs4)n3)ccc2o1` [Example 87, 3-(2-{2-[(2R)-2-methylpyrrolidin-1-yl]ethyl}-1-benzofuran-5-yl)-5-(thien-2-ylmethyl)-1,2,4-oxadiazole], the pKi is 7.80.

`C[C@@H]1CCCN1CCc1cc2cc(-c3noc(-c4ccc(C#N)cc4)n3)ccc2o1` [Example 88, 4-[3-(2-{2-[(2R)-2-methylpyrrolidin-1-yl]ethyl}-1-benzofuran-5-yl)-1,2,4-oxadiazol-5-yl]benzonitrile] showed a pKi of 7.19.

As for `C[C@@H]1CCCN1CCc1cc2cc(-c3noc(-c4ccc(Cl)cc4)n3)ccc2o1` [Example 89, 5-(4-chlorophenyl)-3-(2-{2-[(2R)-2-methylpyrrolidin-1-yl]ethyl}-1-benzofuran-5-yl)-1,2,4-oxadiazole], the pKi is 7.92.

In the case of `C[C@@H]1CCCN1CCc1cc2cc(-c3noc(-c4ccccc4Cl)n3)ccc2o1` [Example 90, 5-(2-chlorophenyl)-3-(2-{2-[(2R)-2-methylpyrrolidin-1-yl]ethyl}-1-benzofuran-5-yl)-1,2,4-oxadiazole], the pKi is 7.68.

As to `C[C@@H]1CCCN1CCc1cc2cc(-c3noc(Cc4ccc(F)cc4)n3)ccc2o1` [Example 91, 5-(4-fluorobenzyl)-3-(2-{2-[(2R)-2-methylpyrrolidin-1-yl]ethyl}-1-benzofuran-5-yl)-1,2,4-oxadiazole], the pKi was 8.00.

Regarding `COc1ccc(Cc2nc(-c3ccc4oc(CCN5CCC[C@H]5C)cc4c3)no2)cc1` [Example 92, 5-(4-methoxybenzyl)-3-(2-{2-[(2R)-2-methylpyrrolidin-1-yl]ethyl}-1-benzofuran-5-yl)-1,2,4-oxadiazole], the pKi was 7.82.

`C[C@@H]1CCCN1CCc1cc2cc(-c3noc(-c4ccccc4)n3)ccc2o1` [Example 94, 3-(2-{2-[(2R)-2-methylpyrrolidin-1-yl]ethyl}-1-benzofuran-5-yl)-5-phenyl-1,2,4-oxadiazole] showed a pKi of 7.80.

In the case of `C[C@@H]1CCCN1CCc1cc2cc(-c3noc(-c4ccc(F)cc4)n3)ccc2o1` [Example 95, 5-(4-fluorophenyl)-3-(2-{2-[(2R)-2-methylpyrrolidin-1-yl]ethyl}-1-benzofuran-5-yl)-1,2,4-oxadiazole], the pKi is 7.92.

The molecule `C[C@@H]1CCCN1CCc1cc2cc(-c3noc(-c4ccc(F)c(Cl)c4)n3)ccc2o1` [Example 96, 5-(3-chloro-4-fluorophenyl)-3-(2-{2-[(2R)-2-methylpyrrolidin-1-yl]ethyl}-1-benzofuran-5-yl)-1,2,4-oxadiazole] showed a pKi of 6.65.

`C[C@@H]1CCCN1CCc1cc2cc(-c3noc(CCl)n3)ccc2o1` [Example 97, 5-(chloromethyl)-3-(2-{2-[(2R)-2-methylpyrrolidin-1-yl]ethyl}-1-benzofuran-5-yl)-1,2,4-oxadiazole]: the pKi is 8.85.

For `CCCc1nc(-c2ccc3oc(CCN4CCC[C@H]4C)cc3c2)no1` [Example 98, 3-(2-{2-[(2R)-2-methylpyrrolidin-1-yl]ethyl}-1-benzofuran-5-yl)-5-propyl-1,2,4-oxadiazole], the pKi was 9.15.

Regarding `CCc1nc(-c2ccc3oc(CCN4CCC[C@H]4C)cc3c2)no1` [Example 99, 5-ethyl-3-(2-{2-[(2R)-2-methylpyrrolidin-1-yl]ethyl}-1-benzofuran-5-yl)-1,2,4-oxadiazole], the pKi was 8.44.

As for `Cc1nc(-c2ccc3oc(CCN4CCC[C@H]4C)cc3c2)no1` [Example 100, 5-methyl-3-(2-{2-[(2R)-2-methylpyrrolidin-1-yl]ethyl}-1-benzofuran-5-yl)-1,2,4-oxadiazole], the negative-log Ki (pKi) is 8.22.

Molecule `C[C@@H]1CCCN1CCc1oc2ccc(-c3ccc(C#N)cc3)cc2c1Br` [Example 101, 4-(3-bromo-2-{2-[(2R)-2-methylpyrrolidin-1-yl]ethyl}-1-benzofuran-5-yl)benzonitrile] gave a negative-log Ki (pKi) of 8.47.

Regarding `C[C@@H]1CCCN1CCc1oc2ccc(-c3ccc(C#N)cc3)cc2c1-c1ccco1` [Example 102, 4-(3-(2-furyl)-2-{2-[(2R)-2-methylpyrrolidin-1-yl]ethyl}-1-benzofuran-5-yl)benzonitrile], the pKi was 7.74.

On to `C[C@@H]1CCCN1CCc1oc2ccc(-c3ccc(C#N)cc3)cc2c1-c1cccnc1` [Example 103, 4-[2-{2-[(2R)-2-methyl-1-pyrrolidinyl]ethyl}-3-(3-pyridinyl)-1-benzofuran-5-yl]benzonitrile], for which the pKi was 7.89.

`C[C@@H]1CCCN1CCc1oc2ccc(-c3ccc(C#N)cc3)cc2c1-c1ccsc1` [Example 104, 4-[2-{2-[(2R)-2-methyl-1-pyrrolidinyl]ethyl}-3-(3-thienyl)-1-benzofuran-5-yl]benzonitrile] had a negative-log Ki (pKi) of 7.39.

`C[C@@H]1CCCN1CCc1oc2ccc(-c3ccc(C#N)cc3)cc2c1-c1ccsc1C=O` [Example 105, 4-(3-(2-formyl-3-thienyl)-2-{2-[(2R)-2-methyl-1-pyrrolidinyl]ethyl}-1-benzofuran-5-yl)benzonitrile] gave a pKi of 8.22.

`Cc1cc(-c2ccc3oc(CCN4CCC[C@H]4C)cc3c2)ccc1C#N` [Example 106, 2-methyl-4-(2-{2-[(2R)-2-methyl-1-pyrrolidinyl]ethyl}-1-benzofuran-5-yl)benzonitrile] showed a pKi of 8.64.

`Cc1cc(C#N)ccc1-c1ccc2oc(CCN3CCC[C@H]3C)cc2c1` [Example 107, 3-methyl-4-(2-{2-[(2R)-2-methyl-1-pyrrolidinyl]ethyl}-1-benzofuran-5-yl)benzonitrile] gave a pKi of 8.10.

The values are drawn from patent US6969730B2, “Amines as histamine-3 receptor ligands and their therapeutic applications” (Abbott Laboratories, priority 2001, dated 2005).
